Laboratory results: article PMC5461506, “Strength of Neisseria meningitidis binding to endothelial cells requires highly-ordered CD147/β2-adrenoceptor clusters assembled by alpha-actinin-4” (Nature Communications, 2017)
No end group written: not given here. *: point of attachment. Biotin = O=C1N[C@H]2[C@H](CS[C@H]2CCCCC(=O)*)N1

How the values were obtained:
CD147–β2AR complex = test: BRET between CD147-Rluc and β2AR-YFP; assay type: cell-based, human; settings: HEK293 cells
Protocol: HEK293 cells (2 × 10^5 per well of a 6-well plates) were transfected with 2 ng plasmid DNA coding for the BRET donor (CD147-Luc, CD147ΔD2-Luc) and increasing amounts of BRET acceptor plasmids (β2-YFP, CCR5-YFP; 0–400 ng per well). Twenty-four hours after transfection, cells were resuspended in Hank's balanced salt solution and distributed in 96-well plates (Perkin-Elmer plates; 10^5 cells per well). After addition of the luciferase substrate, coelenterazine h (5 μM final concentration), luminescence at 485 nm and fluorescence at 530 nm were measured simultaneously in a Mithras LB940 Plate Reader. The BRET ratio was calculated as: ((emission at 530 nm/emission at 485 nm)−(background at 530 nm/background at 485 nm)), where background corresponds to signals in cells expressing the Rluc fusion protein alone under the same experimental conditions. For better readability, results were expressed in milli-BRET units (mBRET), 1 mBRET corresponding to the BRET ratio multiplied by 1000. BRET ratios were plotted as a function of ([YFP-YFP0])/(Rluc), where YFP is the fluorescence signal at 530 nm after excitation at 485 nm, and Rluc the signal at 485 nm after addition of coelenterazine h. YFP0 and Rluc0 correspond to the same values in cells expressing the Rluc fusion protein alone. […]

cytosolic tail of CD147 = test: Surface plasmon resonance, immobilized CD147 cytosolic peptide; assay type: binding; settings: SPR, non-reducing buffer
Protocol: (§1) For SPR experiments, the fusion proteins GST-Actn4, GST alone or the GST-FERM domain of ezrin used as a control were diluted either in a non-reducing (PBS, 0.02% Tween-20) or a reducing (10 mM HEPES, 150 mM NaCl, 1 mM EDTA, 1 mM dithiothreitol, 0.005% Tween-20) running buffer. To control the impact of these buffers on the dimerization status of Actn4, Actn4-GST or GST alone as a control (final concentration 100 nM) were incubated for 30 min with 250 μM freshly prepared solution of bissulfosuccinimidyl suberate crosslinker, then separated on SDS–PAGE gels and transferred to nitrocellulose to analyse their electrophoretic migration by immunoblot. Interaction studies between α-Actn4 and CD147 were performed on a BIAcore T200 Instrument (BIAcore Life Sciences, GE Healthcare Europe). Streptavidin-coated sensor chips (Series S sensor chip SA; GE Healthcare) were used to capture a biotinylated peptide encoding the cytosolic sequence of CD147 (Biotin-[…]) or the juxta-membrane region of CD44 (Biotin-NSRRRCGQKKKLVINSG), purchased from Proteogenix, at a flow rate of 5 μl min^−1 in the non-reducing or the reducing running buffer. The density was controlled at an increased response level of 630 and 286 response units (RUs), for CD147 and CD44, respectively depending on molecular weight. […] Output sensorgrams were analysed using the BIAevaluation 4.1.1 Software.

[1] = molecular target: juxta-membrane cytosolic portion of CD44; test: Surface plasmon resonance, immobilized CD44 juxta-membrane peptide; assay type: binding; settings: SPR, non-reducing buffer, BIAcore T200, read-out: dissociation constant (Kd)
Protocol: as §1

[2] = molecular target: T1, recombinant glutathione-S-transferase (GST)–Actn4 fusion protein (human, UniProt O43707 1-911); test: SPR; BIAcore T200, biotinylated peptides captured on streptavidin chip (630 RU CD147, 286 RU CD44), GST fusions as analytes, non-reducing buffer (PBS, 0.02% Tween-20), 25 μl/min, 60 s association, 60 s dissociation; settings: both partners purified
T1 construct: also called Actn4-GST; source: recombinant, purified

[3] = molecular target: T1, recombinant glutathione-S-transferase …; test: SPR; BIAcore T200, biotinylated peptide captured on streptavidin chip, GST-Actn4 as analyte, reducing buffer (10 mM HEPES, 150 mM NaCl, 1 mM EDTA, 1 mM dithiothreitol, 0.005% Tween-20); apparent affinity; settings: both partners purified
[4] = molecular target: T2, GST-coupled four-point-one, ezrin, radixin, moesin (FERM) domain of ezrin (human, UniProt P15311 2-296); test: SPR; BIAcore T200, biotinylated peptides captured on streptavidin chip (630 RU CD147, 286 RU CD44), GST fusions as analytes, non-reducing buffer (PBS, 0.02% Tween-20), 25 μl/min, 60 s association, 60 s dissociation; settings: both partners purified
T2 construct: also called GST-FERM domain of ezrin; ezrin FERM domain in fusion with GST
T2 sequence (P15311 2-296): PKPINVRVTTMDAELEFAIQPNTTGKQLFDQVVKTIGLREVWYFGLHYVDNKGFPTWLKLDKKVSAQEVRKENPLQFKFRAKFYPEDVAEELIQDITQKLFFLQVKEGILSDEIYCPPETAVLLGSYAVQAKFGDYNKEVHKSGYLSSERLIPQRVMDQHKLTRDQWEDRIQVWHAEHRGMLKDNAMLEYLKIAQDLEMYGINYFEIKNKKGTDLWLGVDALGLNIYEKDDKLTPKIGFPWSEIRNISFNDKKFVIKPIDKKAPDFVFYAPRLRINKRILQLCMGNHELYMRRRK

T1 sequence (O43707 whole entry, the tested form may be a part): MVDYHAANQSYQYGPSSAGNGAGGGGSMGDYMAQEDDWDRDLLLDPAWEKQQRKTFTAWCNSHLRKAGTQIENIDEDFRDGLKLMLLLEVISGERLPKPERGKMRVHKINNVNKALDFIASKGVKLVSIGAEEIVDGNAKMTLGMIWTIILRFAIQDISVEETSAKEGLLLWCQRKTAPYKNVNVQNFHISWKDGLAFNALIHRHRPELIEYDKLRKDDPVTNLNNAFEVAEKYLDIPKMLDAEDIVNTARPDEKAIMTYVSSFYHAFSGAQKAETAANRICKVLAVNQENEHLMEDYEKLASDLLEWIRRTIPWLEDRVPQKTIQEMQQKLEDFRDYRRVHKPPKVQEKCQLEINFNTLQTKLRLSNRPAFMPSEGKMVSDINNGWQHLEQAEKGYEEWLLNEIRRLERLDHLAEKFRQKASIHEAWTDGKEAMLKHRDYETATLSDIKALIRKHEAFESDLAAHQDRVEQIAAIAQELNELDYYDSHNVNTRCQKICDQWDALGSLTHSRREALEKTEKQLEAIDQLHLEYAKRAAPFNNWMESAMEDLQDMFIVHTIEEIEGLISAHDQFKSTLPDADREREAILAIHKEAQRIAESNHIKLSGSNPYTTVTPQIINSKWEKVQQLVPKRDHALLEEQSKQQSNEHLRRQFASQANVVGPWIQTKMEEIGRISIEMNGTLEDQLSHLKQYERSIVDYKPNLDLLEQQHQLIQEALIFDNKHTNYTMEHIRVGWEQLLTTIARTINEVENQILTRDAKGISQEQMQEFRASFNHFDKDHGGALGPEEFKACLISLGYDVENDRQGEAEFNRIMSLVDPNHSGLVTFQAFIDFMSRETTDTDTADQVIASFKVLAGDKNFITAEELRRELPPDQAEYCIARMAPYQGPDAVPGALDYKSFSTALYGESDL

CC(C)NCC(O)c1ccc(O)c(O)c1 (centres unmarked) [isoproterenol]
BRET signal between CD147 and β2AR (CD147–β2AR complex; 2 ng CD147-Rluc, 20 ng β2AR-YFP, isoproterenol 10 μM, read every 2 min for 20 min, mean±s.e.m., n=3, representative of four experiments): reduced

CC(C)NCC(O)COc1cccc2ccccc12 (centres unmarked) [propranolol]
effect on isoproterenol-induced BRET reduction (CD147–β2AR complex; 10 μM isoproterenol in combination with 10 μM propranolol, 20 min): This effect was inhibited

GST-coupled four-point-one, ezrin, radixin, moesin (FERM) domain of ezrin: GST-FERM domain of ezrin used as a control
interaction with immobilized CD147 peptide (cytosolic tail of CD147): poorly interacted with the CD147 peptide | Kd [1]: 4.3 ± 0.1 nM

B1: biotinylated peptide encoding the cytosolic sequence of CD147 (peptide)
peptide: Biotin-AYDKRRKPEDVLDDDDAGSAPLKSSGQHQNDKGKNVRQRNSS
notes: also called CD147-CT; CD147 peptide; source: synthetic peptide, bought: ProteoGenix
Kd [2]: 4 ± 0.01 nM | Kd [3]: 44600 ± 32500 nM

B2: biotinylated peptide of the juxta-membrane region of CD44 (peptide)
peptide: Biotin-NSRRRCGQKKKLVINSG
notes: also called cytosolic tail of CD44; juxta-membrane cytosolic portion of CD44; source: synthetic peptide, bought: ProteoGenix
Kd [2]: 159 ± 43 nM | Kd [4]: 4.3 ± 0.1 nM
